Tests used:
Type in all cases: cell-based
[1] = tested on: H9 cell line (human ES cell); experiment: CXCR4 expression in induced endodermal cells by flow cytometry; settings: dispersed or cluster-forming H9 cells, 10 μmol/l Y27632, under any of these conditions
Procedure: On a 24-well dish (growth area: 1.9 cm^2/well, BD Falcon [trademark]), a H9 cell line (obtained from WiCell), which is a human ES cell, was seeded in a dispersed state at a cell density of 1×10^5 cells/well and cultured for 24 hours. The culture conditions were set as follows: 37° C. and 5% CO2. As a culture solution, mTeSR-1 (STEMCELL) containing 10 μmol/l Y27632 (ROCK activity inhibitory compound, Wako) and 100 ng/ml activin A (R&D Systems) was used. To the mTeSR-1A, a penicillin-streptomycin solution (Wako) had been added beforehand so that the mTeSR-1 contained 100 U/ml penicillin and 100 U/ml streptomycin. […] CXCR4 expression in the stained cells was measured using a flow cytometer (BD FACSCanto [trademark] II, BD Biosciences). CXCR4 expression was also measured in the same manner, except that, from culture day 1 to culture day 4, TeSR-E8 or CDM-PVA was used instead of the mTeSR-1. Further, CXCR4 expression was measured in the same manner, except that, instead of the H9 cell line in the dispersed state, the H9 cell line forming cell clusters was seeded on culture day 1. As a control, CXCR4 expression was measured in the same manner, except that an APC-labeled control antibody (clone name: G155-178, BD Pharmigen) was used instead of the anti-human CXCR4 antibody. […] CXCR4 expression in the thus-obtained endodermal cells was measured in the same manner as in (2) in Example 1. […]

[2] = tested on: H9 cell line (human ES cell); experiment: Endodermal cell induction from pluripotent cells with or without ROCK activity inhibitory compound (Example 8)
Procedure: On a 24-well dish (growth area: 1.9 cm^2/well, BD Falcon [trademark]), a H9 cell line (obtained from WiCell), which is a human ES cell, was seeded in a dispersed state at a cell density of 1×10^5 cells/well and cultured for 24 hours. The culture conditions were set as follows: 37° C. and 5% CO2. As a culture solution, mTeSR-1 (STEMCELL) containing 10 μmol/l Y27632 (ROCK activity inhibitory compound, Wako) and 100 ng/ml activin A (R&D Systems) was used. To the mTeSR-1A, a penicillin-streptomycin solution (Wako) had been added beforehand so that the mTeSR-1 contained 100 U/ml penicillin and 100 U/ml streptomycin. After the culture, the culture solution used on culture day 1 was removed, and a culture solution with the same composition was further added to each well. The cells were further cultured for one day under the above-described culture conditions. The culture solution used on culture day 2 was removed, and mTeSR-1 containing 10 μmol/l Y27632, 100 ng/ml activin A, 10 ng/ml BMP-4 (R&D Systems), 10 μmol/l LY294002 (PI3K activity inhibitory compound, CAYMAN CHEMICAL COMPANY), and 3 μmol/l CHIR99021 (GSK-3β activity inhibitory compound, STEMGENT) was added. Then, the cells were cultured for 24 hours under the above-described culture conditions. […]

[3] = tested on: H9 cell line (human ES cell); experiment: Number of endodermal cells produced after induction; settings: Example 2; seeding 5×10^4 to 2×10^5 cells/well; dispersed or clusters; 10 μmol/l Y27632; under any of these conditions
Procedure: Differentiation into endodermal cells was induced in the same manner as in Example 1, except that the H9 cell line was seeded at a cell density of 5×10^4 cells/well, 1×10^5 cells/well, or 2×10^5 cells/well. Also, differentiation into endodermal cells was induced in the same manner, except that, instead of the H9 cell line in the dispersed state, a H9 cell line forming cell clusters was seeded. Then, the endodermal cells obtained after the induction were collected. The endodermal cells obtained in (1) above were counted.

C[C@@H](N)[C@H]1CC[C@H](C(=O)Nc2ccncc2)CC1 [Y27632]
proportion of the cells positive to the endoderm cell marker CXCR4 ([1]; Example 1, after culture day 5, mTeSR-1, TeSR-E8 or CDM-PVA): ≥ 80.5% | proportion of the cells positive to the endoderm cell marker CXCR4 ([1]; Example 2, seeding 5×10^4, 1×10^5 or 2×10^5 cells/well): ≥ 83.7% | probability of induction ([2]; endodermal cell induction examined on culture day 5, 10 μmol/l Y27632 on culture days 1-4): 100% | Number of times endodermal cell induction was performed ([2]; successful inductions / total inductions, examined on culture day 5, 10 μmol/l Y27632 on culture days 1-4 with activin A, BMP-4, LY294002, CHIR99021): 20/20 | number of the endodermal cells obtained after the induction relative to the number of cells of the H9 cell line at the start of the induction [3]: at least six

— patent US10590389B2, “Endodermal cell production method, liver cell production method, pancreatic cell production method, endodermal cell induction promoter, liver cell induction promoting kit, pancreatic cell induction promoting kit, and microfluidic device” (Kyoto University, priority 2014, dated 2020)
